Experimental data reported in US11064940B2, “Methods for detecting and treating pain using brain activity” (Rhode Island Hospital, priority 2016, dated 2021).
Like-named read-outs stand apart in the source and are kept apart here.

Columns and labels:
male Sprague-Dawley rats [1] = experiment: Thermal hyperalgesia, paw withdrawal latency (PWL) to radiant heat; type: in vivo, rat
male Sprague-Dawley rats [2] = test system: male Sprague-Dawley rats
male Sprague-Dawley rats [3] = experiment: Cortical EEG coherence (3-30 Hz) between S1 and PFC electrodes; type: in vivo, rat
[4] = test system: transgenic mice co-expressing VGAT with Channelrhodopsin-2; experiment: SI theta power (LFP) after intradermal capsaicin in VGAT-ChR2 mice; type: in vivo, mouse; details: 15-20 minutes after intradermal injection of capsaicin in the hindpaw, n=5 mice
From the text: Thalamic bursts are triggered predominantly by GABAergic drive from the reticular thalamic nucleus (TRN), a thin layer overlaying the thalamus that receives strong input from limbic cortical areas. To selectively induce thalamic bursts, TRNs were optically stimulated in awake, unrestrained transgenic mice co-expressing the vesicular GABA transporter (VGAT) with Channelrhodopsin-2 (ChR2). In these mice, ChR2 expression in the thalamus is restricted to the TRN. Age-matched wild-type (C57 Bl\6J) non-ChR2 expressing mice were also used to control for non-specific optical stimulation effects. The naïve state refers to normal conditions prior to induction of the pain models. A custom-made multi-channel system was used to record extracellularly from putative single-units in ventral posterolateral (VPL) thalamus and local field potential (LFP) in the primary somatosensory cortex (S1) hindlimb area (FIGS. 9A-9B). For a description of the FlexDrive system assembly see www.open-ephys.org/[…]. […] FlexDrives were fixed to the skull using C&B-METABOND® Quick! Adhesive (Parkell). After 3 days postoperatively, tetrodes were lowered incrementally ( 500 μm over 5-7 days) until auditory confirmation of typical neuronal responses as expected in VPL and SI (e.g., increased multiunit firing) evoked by light brushing of the left hindpaw. Tetrode positions were also corroborated by stereotaxic coordinates. […]

VPL neurons = experiment: Spontaneous burst firing of VPL thalamic neurons after capsaicin; type: in vivo, mouse; details: after capsaicin injection, n=17 units, 5 mice
From the text: A custom-made multi-channel system was used to record extracellularly from putative single-units in ventral posterolateral (VPL) thalamus and local field potential (LFP) in the primary somatosensory cortex (S1) hindlimb area (FIGS. 9A-9B). For a description of the FlexDrive system assembly see www.open-ephys.org/[…]. […] FlexDrives were fixed to the skull using C&B-METABOND® Quick! Adhesive (Parkell). After 3 days postoperatively, tetrodes were lowered incrementally ( 500 μm over 5-7 days) until auditory confirmation of typical neuronal responses as expected in VPL and SI (e.g., increased multiunit firing) evoked by light brushing of the left hindpaw. Tetrode positions were also corroborated by stereotaxic coordinates. […] Chronic implants were stable over several weeks, allowing longitudinal analysis of neuronal activity with behavioral testing of mechanical sensitivity. […] Sorted spikes were then screened visually and inspected for false-positive or overlapping unitary assignments. Only one electrode per tetrode was used for spike sorting to minimize redundant assignments from the same unit. […] Moreover, isolation of putative unitary spikes also met the criterion of inter-spike interval (ISI)>2 ms (refractory period). […]

[5] = test system: transgenic mice co-expressing VGAT with Channelrhodopsin-2; experiment: Mechanical paw withdrawal threshold to von Frey filaments after capsaicin; details: within 15-20 minutes after capsaicin injection, n=7 mice
Method: For acute and chronic pain models, capsaicin (0.1%, 10 μl, intradermal) was injected into the plantar aspect of the left hindpaw under sedation (1.5% isoflurane <2 min) to prevent stress due to restraining the hindpaw.
Mechanical sensitivity of the hindpaw was assessed by measuring the threshold of withdrawal in response to the application of calibrated von Frey filaments of different bending forces to the plantar aspect of the hindpaw according to the ‘up-down’ method, whereby filaments of different bending forces were pressed against the paw until buckling for a maximum of 3 seconds or a withdrawal reflex.

[6] = rats with capsaicin, ibuprofen 30 mg/kg i.p.
[7] = rats with capsaicin, ibuprofen 30 mg/kg i.p. concomitantly with capsaicin, EEG 30 min after
[8] = 30 min after capsaicin, n=8 rats
[9] = rats with CCI, d14, 30 min after i.p. pregabalin
[10] = rats with CFA, d2, before / 30 min after i.p. pregabalin

CC(C)Cc1ccc(C(C)C(=O)O)cc1 (stereo not shown) [ibuprofen]
PWL (FIG. 4B) (male Sprague-Dawley rats [1]; [6]): 114±10
PFC EEG mean power (male Sprague-Dawley rats [2]; [7]): 117±18
iS1 EEG mean power (male Sprague-Dawley rats [2]; [7]): 143±35

COc1cc(CNC(=O)CCCC/C=C/C(C)C)ccc1O [capsaicin]
paw withdrawal latency (PWL) (male Sprague-Dawley rats [1]; [8]): 6.00 ± 0.24 s
paw withdrawal latency (PWL) (male Sprague-Dawley rats [1]; 24 hour after capsaicin): 9.15 ± 0.26 s
PWL (FIG. 4B) (male Sprague-Dawley rats [1]; [6]): 64±3
cS1-iS1 coherence (male Sprague-Dawley rats [3]; rats with capsaicin or CFA): did not significantly effect
iS1-PFC coherence (male Sprague-Dawley rats [3]; rats with capsaicin or CFA): did not significantly effect
coherence between cS1 and PFC (mean 3-30 Hz coherence) (male Sprague-Dawley rats [3]; rats with capsaicin, n=7 rats): 0.61±0.05
SI power in the theta band at 3.8-6.2 Hz [4]: 8.15×10^−2±0.13×10^−2 mV^2
rate of spontaneous burst firing in VPL neurons (VPL neurons): 0.64±0.11
PFC EEG mean power between 3 Hz to 30 Hz (male Sprague-Dawley rats [2]; [8]): 0.67±0.06 mV^2×10^−5
cS1 EEG mean power between 3 Hz to 30 Hz (male Sprague-Dawley rats [2]; [8]): 1.05±0.11 mV^2×10^−5
iS1 EEG mean power between 3 Hz to 30 Hz (male Sprague-Dawley rats [2]; [8]): 1.05±0.8 mV^2×10^−5
PFC EEG mean power between 3 Hz to 30 Hz (male Sprague-Dawley rats [2]; 24 hours after capsaicin): 0.65±0.07 mV^2×10^−5
cS1 EEG mean power between 3 Hz to 30 Hz (male Sprague-Dawley rats [2]; 24 hours after capsaicin): 0.89±0.12 mV^2×10^−5
iS1 EEG mean power between 3 Hz to 30 Hz (male Sprague-Dawley rats [2]; 24 hours after capsaicin): 0.90±0.18 mV^2×10^−5
PFC EEG mean power (male Sprague-Dawley rats [2]; [7]): 123±16
cS1 EEG mean power (FIG. 4A) (male Sprague-Dawley rats [2]; [7]): 128±17
iS1 EEG mean power (male Sprague-Dawley rats [2]; [7]): 124±14
paw withdrawal threshold (von Frey) [5]: 1.00 ± 0.37 g

CC(C)C[C@H](CN)CC(=O)O [pregabalin]
PWL (FIG. 4B) (male Sprague-Dawley rats [1]; rats with CCI, after pregabalin): 119±5
PWL (FIG. 4B) (male Sprague-Dawley rats [1]; rats with CFA, before / after pregabalin): 132±17
coherence between cS1 and PFC (mean 3-30 Hz coherence) (male Sprague-Dawley rats [3]; rats with CCI d14, after pregabalin, n=5 rats): 0.61±0.03
adverse EEG signs (diffuse or paroxysmal slow activity associated with drowsiness) (male Sprague-Dawley rats [2]; rat, in vivo): did not manifest adverse EEG signs
PFC EEG mean power (male Sprague-Dawley rats [2]; [9]): 133±14
cS1 EEG mean power (FIG. 4A) (male Sprague-Dawley rats [2]; [9]): 87±12
iS1 EEG mean power (male Sprague-Dawley rats [2]; [9]): 151±20
PFC EEG mean power (male Sprague-Dawley rats [2]; [10]): 138±20
cS1 EEG mean power (FIG. 4A) (male Sprague-Dawley rats [2]; [10]): 209±35
iS1 EEG mean power (male Sprague-Dawley rats [2]; [10]): 133±9

Cc1cccc(C)c1OCC(C)N (stereo not shown) [mexiletine]
PWL (FIG. 4B) (male Sprague-Dawley rats [1]; rats with CCI, after mexiletine 10 mg/kg i.p.): 119±17
coherence between cS1 and PFC (mean 3-30 Hz coherence) (male Sprague-Dawley rats [3]; rats with CCI d16, after mexiletine, n=5 rats): 0.50±0.10
PFC EEG mean power (male Sprague-Dawley rats [2]; rat, in vivo): 113±6
adverse EEG signs (diffuse or paroxysmal slow activity associated with drowsiness) (male Sprague-Dawley rats [2]; rat, in vivo): did not manifest adverse EEG signs
cS1 EEG mean power (FIG. 4A) (male Sprague-Dawley rats [2]; rat, in vivo): 134±18
iS1 EEG mean power (male Sprague-Dawley rats [2]; rat, in vivo): 13926
